ChEMBL document CHEMBL5329212, “In situ click chemistry-based discovery of 1,2,3-triazole-derived diarylpyrimidines as novel HIV-1 NNRTIs by exploiting the tolerant region I in binding pocket” (Bioorg Med Chem, 2023)
In brackets after ≈: the same amount, converted by molar mass.

What was measured:
[1] = Half life in Wistar rat at 2 mg/kg, iv measured upto 8 hrs by LC-MS/MS analysis; format: ADME, organism-based; conditions: in vivo
[2] = molecular target: Human immunodeficiency virus type 1 reverse transcriptase (Human immunodeficiency virus 1, UniProt Q72547); experiment: Inhibition of HIV-1 reverse transcriptase incubated for 1 hrs in presence of biotin-labeled dNTPs by ELISA assay
[3] = tested on: Human immunodeficiency virus 1; experiment: Antiviral activity against HIV-1 harboring RT RES056 mutant infected in human MT4 cells assessed as protection against virus-induced cytopathic effect measured after 5 days by MTT assay; format: functional, organism-based; conditions: Human immunodeficiency virus 1, MT4, 120 h
[4] = tested on: Human immunodeficiency virus 1; experiment: Antiviral activity against wild type HIV-1 IIIB infected in human MT4 cells assessed as protection against virus-induced cytopathic effect measured after 5 days by MTT assay; format: functional, organism-based; conditions: Human immunodeficiency virus 1, IIIB, MT4, 120 h
[5] = tested on: Human immunodeficiency virus 1; experiment: Antiviral activity against HIV-1 harboring RT F227L/V106A double mutant infected in human MT4 cells assessed as protection against virus-induced cytopathic effect measured after 5 days by MTT assay; format: functional, organism-based; conditions: Human immunodeficiency virus 1, MT4, 120 h
[6] = tested on: Human immunodeficiency virus 1; experiment: Antiviral activity against HIV-1 harboring RT E138K mutant infected in human MT4 cells assessed as protection against virus-induced cytopathic effect measured after 5 days by MTT assay; format: functional, organism-based; conditions: Human immunodeficiency virus 1, MT4, 120 h
[7] = tested on: Human immunodeficiency virus 1; experiment: Antiviral activity against HIV-1 harboring RT Y188L mutant infected in human MT4 cells assessed as protection against virus-induced cytopathic effect measured after 5 days by MTT assay; format: functional, organism-based; conditions: Human immunodeficiency virus 1, MT4, 120 h
[8] = molecular target: Human immunodeficiency virus type 1 reverse transcriptase (Human immunodeficiency virus 1) (UniProt Q72547); experiment: Inhibition of HIV-1 reverse transcriptase at 0.267 uM incubated for 1 hrs in presence of biotin-labeled dNTPs by ELISA assay relative to control
[9] = Cytotoxicity against human MT4 cells assessed as reduction in cell viability measured after 5 days by MTT assay; format: toxicity, cell-based; conditions: time 5 day
[10] = tested on: Human immunodeficiency virus 1; experiment: Antiviral activity against HIV-1 harboring RT Y181C mutant infected in human MT4 cells assessed as protection against virus-induced cytopathic effect measured after 5 days by MTT assay; format: functional, organism-based; conditions: Human immunodeficiency virus 1, MT4, 120 h
[11] = tested on: Human immunodeficiency virus 1; experiment: Antiviral activity against HIV-1 harboring RT L100I mutant infected in human MT4 cells assessed as protection against virus-induced cytopathic effect measured after 5 days by MTT assay; format: functional, organism-based; conditions: Human immunodeficiency virus 1, MT4, 120 h
[12] = tested on: Human immunodeficiency virus 1; experiment: Antiviral activity against HIV-1 harboring RT K103N mutant infected in human MT4 cells assessed as protection against virus-induced cytopathic effect measured after 5 days by MTT assay; format: functional, organism-based; conditions: Human immunodeficiency virus 1, MT4, 120 h
[13] = Aqueous solubility of the compound at pH 2 at 0.1 to 10 mg; format: physicochemical; conditions: aqueous medium, dose 0.1-10 mg
[14] = Aqueous solubility of the compound at pH 7.4 at 0.1 to 10 mg; format: physicochemical; conditions: aqueous medium, dose 0.1-10 mg
[15] = Aqueous solubility of the compound at pH 7.0 at 0.1 to 10 mg; format: physicochemical; conditions: aqueous medium, dose 0.1-10 mg

half-life [1] [h]	Structure (SMILES)	IC50 [2] [µM]	EC50 [3] [µM]	EC50 [4] [µM]	EC50 [5] [µM]	EC50 [6] [µM]	EC50 [7] [µM]	inhibition [8] [%]	CC50 at 120 h [9] [µM]	EC50 [10] [µM]	EC50 [11] [µM]	EC50 [12] [µM]	solubility [13] [µg/mL]	solubility [14] [µg/mL]	solubility [15] [µg/mL]
2	Cc1cc(C#N)cc(C)c1Oc1nc(NC2CCN(Cc3ccc(S(N)(=O)=O)cc3)CC2)nc2ncsc12	–	–	–	–	–	–	–	–	–	–	–	–	–	–
–	Cc1cc(C#N)cc(C)c1Oc1nc(Nc2ccc(-c3cn(Cc4ccc(B(O)O)cc4)nn3)cc2)nc2ccsc12	0.42	≥ 5.55	0.16	4.09	0.65	3.17	50.8	13.4	4.87	2.45	0.41	–	–	–
–	COC(=O)c1cccc(-n2cc(-c3ccc(Nc4nc(Oc5c(C)cc(C#N)cc5C)c5sccc5n4)cc3)nn2)c1	0.65	≥ 154	1.26	23.3	4.98	58.4	42.4	> 218	24.2	7.4	1.75	–	–	–
–	Cc1cc(C#N)cc(C)c1Oc1nc(Nc2ccc(-c3cn(Cc4ccc(C(N)=O)cc4)nn3)cc2)nc2ccsc12	0.25	> 218	0.03	7.07	0.15	12	39.5	> 218	6.96	1.47	0.08	–	–	–
–	Cc1cc(C#N)cc(C)c1Oc1nc(Nc2ccc(-c3cn(Cc4ccc(S(N)(=O)=O)cc4)nn3)cc2)nc2ccsc12	0.19	> 205	0.03	3.61	0.05	3.21	46.3	> 205	2.63	0.99	0.04	–	–	–
0.9	Cc1cc(C#N)cc(C)c1Oc1nc(NC2CCN(Cc3ccc(S(N)(=O)=O)cc3)CC2)nc2scnc12	–	–	–	–	–	–	–	–	–	–	–	–	–	–
–	Cc1cc(C#N)cc(C)c1Oc1nc(Nc2ccc(-c3cn(CCN4C(=O)c5ccccc5C4=O)nn3)cc2)nc2ccsc12	3.36	> 204	1.85	124	13.8	≥ 157	46.2	> 204	45.7	3.2	2.11	–	–	–
–	Cc1cc(C#N)cc(C)c1Oc1nc(Nc2ccc(-c3cn(CC(=O)Nc4ccc(C(F)(F)F)cc4)nn3)cc2)nc2ccsc12	2.73	23.4	2.06	18.7	6.68	17.5	43.8	> 195	5.5	2.5	2.83	–	–	–
–	Cc1cc(C#N)cc(C)c1Oc1nc(Nc2ccc(-c3cn(S(=O)(=O)n4ccnc4)nn3)cc2)nc2ccsc12	0.03	≥ 5.64	0.01	0.26	0.03	0.25	66.5	140	0.16	0.08	0.01	102 (≈ 179 µM)	44.2 (≈ 77.6 µM)	64.7 (≈ 114 µM)
1.6	Cc1cc(C#N)cc(C)c1Oc1nc(NC2CCN(Cc3ccc(S(N)(=O)=O)cc3)CC2)nc2ccsc12	–	–	–	–	–	–	39.1	–	–	–	–	–	–	–
